Consider 10 molecules from US10590094B2, “Aminothiazole derivatives useful as antiviral agents” (Innovative Molecules GmbH, priority 2016, dated 2020).

In brackets after ≈: the same amount, converted by molar mass. Several values for one entry are separate records, joined by “and”; a condition that tells them apart may be missing. Equal entries are not always repeated. A value given as a limit tells only on which side of the number the result lay.

Broadly, the IC50 is the concentration needed to halve the response being measured. A word on the bioavailability: it is dose-corrected exposure relative to a reference, in per cent. Low values mean little systemic uptake, high ones much systemic uptake. The term Tmax denotes the time at which the peak concentration occurs. In general, half-life refers to the time needed for the level to fall by half in the phase considered. Usually ED50 stands for the midpoint of the dose-response relation.

Data set [1] deals with HSV-1 ACV resistant. In words: activity selectivity assay, ACV resistant HSV-1. The settings on record: Human alphaherpesvirus 1, read-out: IC50 (HSV-1 ACV resistant). It counts as cell-based, Herpes simplex virus. The procedure:
(§1) HSV (HSV-1 Walki, HSV-1F, HSV-2 MS, HSV clinical isolates and HSV resistant strains) was cultivated on Vero cells (ATCC CCL-81) under the following conditions: The cells were grown in M199 medium (5% foetal calf serum, 2 mM glutamine, 100 IU/mL penicillin, 100 μg/mL streptomycin) in cell culture bottles at 37° C. and 5% CO2. The cells were splitted twice per week (1:4). For the infection, the medium was removed, the cells were washed with Hank's solution, detached using 0.05% trypsin, 0.02% EDTA and incubacted at a density of 4×10^5 cells/mL under the above-mentioned conditions for 24 h. The medium was removed and the virus solution was added at an m.o.i of <0.05 in a volume of 2 mL per 175 cm^2 surface. The infected cells were incubated at 37° C., 5% CO2 for 1 h and then the medium was made up to a volume of 50 mL per 175 cm^2 bottle. […] The virus was released by freezing (−80° C.) and thawing (37° C.) the infected cultures twice. Cell debris was removed by centrifugation (300 g, 10 min, 4° C.) and the supernatant was frozen in aliquots at −80° C.
(§2) The antiviral action was determined using a patented (DE10235967 and WO2004/015416) and subsequently published activity selectivity assay (G. Kleymann et al. J. Biomol. Screen. 2004; 9:578) in 96- or 384-well mictrotitre plates using various cell lines of neuronal, lymphoid and epithelial origin, such as, for example, Vero (african green monkey kidney cells), MEF (murine embryonal fibroblasts), HELF (human embryonal fibroblasts), NT2 (human neuronal cell line) or Jurkat (human lymphoid T-cell line). The relevant experimental details of the above mentioned patent and publication to evaluate the antiviral activity of the invention (disclosed compounds) are described below.
(§3) The effect of the substances on the spreading of the cytopathogenic effect was determined in comparison to the reference compound acyclovir-sodium (Zovirax™), a clinically approved anti-herpes chemotherapeutic.
(§4) The compounds (50 mM stock solution dissolved in DMSO) are examined on microtitre plates (for example 96-well flat bottom cell culture plates) at a final concentration of 250 to 0.5 μM or, in case of potent antiviral compounds, 250 to 0.5 nM in 2 to 4 replications (4 to 2 substances per plate). Also examined are toxic and cytostatic effects or precipitation of the compounds. After an appropriate dilution of the compounds (1:2) on the microtitre plate in the appropriate medium (100 μL), a suspension of cells (50 μL, 1×10^4 cells per well), such as, for example of Vero cells in M199 (medium 199 with 5% foetal calf serum, 2 mM glutamine and optionally 100 IU/ml penicillin and 100 μg/ml streptomycin) or of MEF or HELF cells in EMEM (Eagle's Minimum Essential Medium with 10% foetal calf serum, 2 mM glutamine and optionally 100 IU/mL penicillin and 100 μg/mL streptomycin), or of NT2- and Jurkat cells in DMEM (([…] glucose plus pyridoxin) with 10% foetal calf serum, 2 mM glutamine, 1 mM sodium pyruvate, non-essential amino acids and optionally 100 IU/mL penicillin and 100 μg/mL streptomycin) is added to each well and the cells in the relevant wells are infected with the appropriate amount of virus (HSV-1 or HSV-2 having an m.o.i (multiplicity of infection) of 0.0025 for Vero, HELF and MEF cells and an m.o.i. of 0.1 for NT2 and Jurkat cells). The plates are then incubated at 37° C. in a cell CO2 incubator (5% CO2) for several days. After this time, the cell lawn of, for example, Vero cells in the substance-free virus controls, starting from 25 infections centres, is completely destroyed or lysed by the cytopathogenic effect (CPE) of the Herpes viruses (100% CPE). The plates are initially evaluated visually using a microscope and then analysed using a fluorescent dye. To this end, the cell supernatant of all wells of the MTP is aspirated and the wells are filled with 250 μL PBS (phosphate buffered saline) wash solution. […]

For data set [2], the system named is HSV-1. In words: activity selectivity assay, HSV-1 infected Vero cells (cytopathogenic effect, fluorescein diacetate readout). It counts as cell-based, Herpes simplex virus. The settings on record: Human alphaherpesvirus 1. The procedure: as §1, §2, §3, §4
Data set [3] deals with HSV-2. Kind of data set: activity selectivity assay, HSV-2 infected Vero cells. It counts as cell-based, Herpes simplex virus. The settings on record: Human alphaherpesvirus 2. As to the method: as §1, §2, §3, §4
Data set [4] is described as follows: aqueous solubility (PBS, pH 7.4), shake flask. In kind it is physicochemical. The procedure: The aqueous solubility (PBS, pH 7.4) was determined at Eurofins, Cerep, Panlabs according to C. A. Lipinski et al. Adv. Drug Del. Rev. 1997, 46:3. Measurement of the aqueous solubility was performed according to Lipinski, C. A. et al. (1997), Adv. Drug Del. Rev., 46: 3-26. The relevant information from the literature is described below. […] In addition, chromatographic purity (%) was defined as the peak area of the principal peak relative to the total integrated peak area in the HPLC chromatogram of the calibration standard.

Data set [5] has as its target Human Carboanhydrase II (Homo sapiens, UniProt P00918). Kind of data set: carbonic anhydrase activity assay (pH indicator method). It counts as biochemical. The procedure:
Carbonic anhydrase II activity and its respective inhibition was performed according to R. Iyer et al. J. Biomol. Screen.
A protocol for determination of the carbonic anhydrase enymatic activity at rt using the pH indicator method is described below:
1 μL inhibitor (50 mM stock solution in DMSO) is diluted to a final test concentration ranging from 100 μM down to 1 nM (or 1 μL water in controls) and incubated for 2 min with 0.5 to 2 EU human […] (180 U/mg) in 400 μL water and 200 μL phenol red indicator solution (20 mg/L). An enzymactic unit (EU) is defined as an amount which doubles the non catalyzed rate. […] The time to colour change (pH 7.2) is determined with a microchronometer or stop watch.
The percentage of inhibition is calculated as described below: (time to color change without enzyme time to color change with enzyme and inhibitor)/(time to color change without enzyme time to color change with enzyme).

Data set [6] can be described thus: pharmacokinetics in male mice strain C57BL/6J. In kind it is in vivo. To be noted: mouse. The procedure:
Pharmcokinetic parameters were determined for Example 3 in male mice strain C57BL/6J at an intraveneous (i.v.) dose of 5 mg/kg (5% DMSO in heterologous plasma, 2.5 ml/kg) and an oral dose (p.o) of 10 mg/kg (DMSO/0.5% HPMC (5:95), 5 ml/kg). […] Significant concentrations in the brain of treated mice (2-3 μM, 1000 ng compound/g brain) were detected 6 h post administration at an oral dose of 10 mg/kg.

Data set [7] deals with HSV-1. Kind of data set: HSV-1 intranasal infection mouse model, survival. It counts as in vivo. To be noted: Human alphaherpesvirus 1, inhaled or nasal, 120 h; female BALB/ABom mice, intranasal HSV-1, treatment for 5 days; read-out: ED50 (dose at which 50% of the infected animals survive). As to the method: Animal experiments were performed according to patent WO2001/047904 or subsequent publications (U. A. K. Betz et al. Antimicrob. Agents Chemother. 2002; 46:1766 or G. Kleymann et al. Nat. Med. 2002; 8:392). The relevant experimental details of the above mentioned patent and publication to evaluate the antiviral activity of the invention (disclosed compounds) in-vivo (animal models) are described below.
6 week-old female mice, BALB/ABom strain were obtained from a commercial breeder.
The animals were anaesthetized with Et2O in a sealed glass vessel. 50 μL of a dilution of the virus stock (infection dose 5×10^4 PFU (Plaque forming units)) were introduced into the nose of the anaesthetized animals using a pipette. In 90 to 100% of the animals, this infection dose causes death by generalized infection with prominent respiratory and central-nervous symptoms on average after 5 to 8 days.
6 hours after infection animals were treated with doses of 0.1-150 mg/kg of body mass, 3 times per day at 7 am, 2 pm and 7 pm (tid) or 2 times per day at 7 am and 7 pm (bid) or once daily at 1 pm (od) for a period of 5 days. […] After the last administration, the animals were monitored further and the time of death was determined.

`Cc1nc(N(C)C(=O)Cc2ccc(-c3cc(F)ccc3F)cc2)sc1P(=O)(O)O` [Example 9, (2-(2-(2′,5′-Difluoro-[1,1′-biphenyl]-4-yl)-N-methylacetamido)-4-methylthiazol-5-yl)phosphonic acid]: the IC50 in data set [1], in data set [2] and in data set [3] was 25000 to 100000 nM in each case.

For the molecule `Cc1nc(N(C)C(=O)Cc2ccc(-c3cc(F)ccc3F)cc2)sc1S(C)(=N)=O` (stereo not shown) [Example 7, 2-(2′,5′-Difluoro-[1,1′-biphenyl]-4-yl)-N-methyl-N-(4-methyl-5-(S-methylsulfonimidoyl)thiazol-2-yl)acetamide], the IC50 in data set [1], in data set [2] and in data set [3] was 25 to 100 nM throughout.

In the case of `CSc1sc(N(C)C(=O)Cc2ccc(-c3cc(F)ccc3F)cc2)nc1C` [Example P4b, 2-(2′,5′-Difluoro-[1,1′-biphenyl]-4-yl)-N-methyl-N-(4-methyl-5-(methylthio)thiazol-2-yl)acetamide], the IC50 in data set [1], in data set [2] and in data set [3] was 2000 to 6000 nM each time.

Consider `Cc1nc(N(C)C(=O)Cc2ccc(-c3cc(F)ccc3F)cc2)sc1S(=N)(N)=O` (stereo not shown) [Example 3, 2-(2′,5′-Difluoro-[1,1′-biphenyl]-4-yl)-N-methyl-N-(4-methyl-5-sulfamimidoylthiazol-2-yl)acetamide], for which the IC50 in data set [1] is 5 to 50 nM; in data set [2], 5 to 50 nM; in data set [5], > 5 µM; in data set [3] it was 5 to 50 nM. Also, in data set [4] (PBS buffer, aqueous buffer, kinetic from dmso stock, pH 7.4, shake flask, 24 h incubation, RT, read-out: Solubility [μM] (PBS, pH 7.4, 200 μM Test concentration)), the solubility at 24 h came to 16.2 µM (≈ 7.07 µg/mL). Besides, the “solubility in comparison to Example 87 (WO2001/047904)” value in data set [4] (pH 7.4) was “significantly increased solubility (at least one order of magnitude)”. In addition, the “carboanhydrase inhibition (IC50)” value in data set [5] (text statement before Table 2) is on record as “no or reduced carbonic anhydrase inhibition”. In addition, the concentration at 6 h in data set [6] (male, C57BL/6J, brain, mice, 6 h post administration, oral dose of 10 mg/kg) was 2 µM to 3 µM and 1000 ng/g. The molecule also returned a bioavailability in data set [6] (plasma, oral, male C57BL/6J mice, 10 mg/kg p.o. vs 5 mg/kg i.v.) of 94%. Besides, in data set [6] (plasma, po, male C57BL/6J mice, 10 mg/kg p.o.), the Tmax was 1 h. In addition, the Cmax in data set [6] (plasma, po, male C57BL/6J mice, 10 mg/kg p.o., read-out: maximal plasma concentration (cmax)) was 13.9 µM. In addition, the half-life in data set [6] (plasma, male C57BL/6J mice, oral dose of 10 mg/kg, read-out: terminal half life (converted)) is ~3.5 h. Besides, the ED50 in data set [7] is < 10 mg/kg.

Regarding `Cc1nc(N(C)C(=O)Cc2ccc(-c3cc(F)ccc3F)cc2)sc1/S(C)=N\C#N` (stereo not shown) [Example 13, N-[5-(N-Cyano-S-methyl-sulfinimidoyl)-4-methyl-thiazol-2-yl]-2-[4-(2,5-difluorophenyl)phenyl]-N-methyl-acetamide], the IC50 in data set [1], in data set [2] and in data set [3] was 300 to 3000 nM in each case.

For `Cc1nc(N(C)C(=O)Cc2ccc(-c3cc(F)ccc3F)cc2)sc1S(C)(=O)=NC#N` (stereo not shown) [Example 14, N-[5-(N-Cyano-S-methyl-sulfonimidoyl)-4-methyl-thiazol-2-yl]-2-[4-(2,5-difluorophenyl)phenyl]-N-methyl-acetamide], the IC50 in data set [1], in data set [2] and in data set [3] was 1000 to 5000 nM throughout.

With `Cc1nc(N(C)C(=O)Cc2ccc(-c3cc(F)ccc3F)cc2)sc1S(=O)(=O)NC#N` [Example 12, N-(5-(N-Cyanosulfamoyl)-4-methylthiazol-2-yl)-2-(2′,5′-difluoro-[1,1-biphenyl]-4-yl)-N-methylacetamide], the IC50 in data set [1], in data set [2] and in data set [3] was 100 to 1000 nM throughout.

With `Cc1nc(N(C)C(=O)Cc2ccc(-c3ccccn3)cc2)sc1S(=N)(N)=O` (stereo not shown) [Example 3-1, N-methyl-N-(4-methyl-5-sulfamimdoylthiazol-2-yl)-2-(4-(pyridin-2-yl)phenyl)acetamide], the IC50 in data set [1], in data set [2] and in data set [3] was 5 to 50 nM each time.

With `Nc1nc2c(ncn2COCCO)c(=O)[nH]1` [Acyclovir, reference compound], the results for the IC50 in data set [1], in data set [2] and in data set [3] were > 25000 nM, 500 to 3000 nM and 500 to 3000 nM, respectively.

Consider `Cc1nc(N(C)C(=O)Cc2ccc(-c3cc(F)ccc3F)cc2)sc1[S+](C)[O-]` (stereo not shown) [Example 4, 2-(2′,5′-Difluoro-[1,1′-biphenyl]-4-yl)-N-methyl-N-(4-methyl-5-(methylsulfinyl)thiazol-2-yl)acetamide], for which the IC50 in data set [1], in data set [2] and in data set [3] was 100 to 500 nM in each case.
